What all share (type): cell-based
In one test the target is T1, TALRsp (Cereibacter sphaeroides, UniProt Q3IWB0).
T1 construct: gene hutH; co-expressed with rat SULT1A1 in E. coli BL21(DE3); whole growing cells
T1 sequence (Q3IWB0 1-523): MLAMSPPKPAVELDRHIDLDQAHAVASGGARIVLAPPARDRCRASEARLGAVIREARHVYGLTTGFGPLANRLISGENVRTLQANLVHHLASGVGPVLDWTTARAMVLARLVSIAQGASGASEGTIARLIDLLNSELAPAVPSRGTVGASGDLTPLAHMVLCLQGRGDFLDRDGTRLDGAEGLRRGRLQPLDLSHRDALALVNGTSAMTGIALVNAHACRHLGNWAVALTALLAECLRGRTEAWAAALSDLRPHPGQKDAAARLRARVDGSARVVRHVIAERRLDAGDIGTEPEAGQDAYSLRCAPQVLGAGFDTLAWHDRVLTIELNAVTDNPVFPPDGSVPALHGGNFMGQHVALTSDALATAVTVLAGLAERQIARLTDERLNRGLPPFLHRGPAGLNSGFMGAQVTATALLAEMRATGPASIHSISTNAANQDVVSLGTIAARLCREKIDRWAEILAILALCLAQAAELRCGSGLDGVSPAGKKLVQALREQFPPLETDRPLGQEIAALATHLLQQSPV
As to the kind of experiment: HPLC of p-coumaric and zosteric acid in culture of E. coli co-expressing TAL and SULT1A1. The note with it: with or without 2 mM tyrosine; M9, 0.2% glucose, 24 h.

The target in a further test is T2, TALFjo (Flavobacterium johnsoniae, UniProt A5FKY3).
T2 construct: gene Fjoh_1109; co-expressed with rat SULT1A1 in E. coli BL21(DE3) (also in S. cerevisiae); whole growing cells
T2 sequence (A5FKY3 1-506): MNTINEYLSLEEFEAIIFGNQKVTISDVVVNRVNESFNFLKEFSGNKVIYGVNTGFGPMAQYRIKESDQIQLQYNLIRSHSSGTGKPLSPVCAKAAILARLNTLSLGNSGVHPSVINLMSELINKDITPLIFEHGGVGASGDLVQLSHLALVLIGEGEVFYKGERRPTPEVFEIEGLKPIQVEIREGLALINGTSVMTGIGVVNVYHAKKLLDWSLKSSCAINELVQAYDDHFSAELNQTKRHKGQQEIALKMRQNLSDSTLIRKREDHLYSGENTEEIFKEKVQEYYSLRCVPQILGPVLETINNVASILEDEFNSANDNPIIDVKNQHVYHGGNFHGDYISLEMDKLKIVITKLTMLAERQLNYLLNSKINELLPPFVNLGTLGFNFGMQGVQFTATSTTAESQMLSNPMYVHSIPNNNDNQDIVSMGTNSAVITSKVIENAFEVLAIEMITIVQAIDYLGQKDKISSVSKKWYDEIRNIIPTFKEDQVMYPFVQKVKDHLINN
Described as above. The note with it: with or without 2 mM tyrosine; M9, 0.2% glucose, 24 h.

The target of the next test is T3, TALRca (Rhodobacter capsulatus, UniProt D5AR26).
T3 construct: gene hutH; co-expressed with rat SULT1A1 in E. coli BL21(DE3); whole growing cells
T3 sequence (D5AR26 1-531): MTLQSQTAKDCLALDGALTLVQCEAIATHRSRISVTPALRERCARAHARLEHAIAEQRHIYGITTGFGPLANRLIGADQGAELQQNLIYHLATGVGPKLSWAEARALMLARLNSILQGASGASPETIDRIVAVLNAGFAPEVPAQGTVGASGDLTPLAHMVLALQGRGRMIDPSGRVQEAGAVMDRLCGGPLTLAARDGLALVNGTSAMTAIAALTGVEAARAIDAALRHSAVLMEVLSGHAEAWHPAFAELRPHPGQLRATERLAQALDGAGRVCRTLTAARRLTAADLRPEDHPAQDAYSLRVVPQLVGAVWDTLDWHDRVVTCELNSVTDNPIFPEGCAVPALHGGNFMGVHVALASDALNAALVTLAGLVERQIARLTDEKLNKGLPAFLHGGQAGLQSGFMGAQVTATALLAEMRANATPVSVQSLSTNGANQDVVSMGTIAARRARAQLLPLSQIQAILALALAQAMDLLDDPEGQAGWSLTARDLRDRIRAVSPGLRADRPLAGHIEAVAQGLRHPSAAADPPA
The test is described as above. The following applies: with or without 2 mM tyrosine; M9, 0.2% glucose, 24 h.

The target of a further test is T4, SULT1A1Rno (Rattus norvegicus, UniProt P17988).
T4 construct: gene Sult1a1; codon-optimized synthetic gene in pETDuet-1, expressed in E. coli KRX or BL21(DE3) (also in S. cerevisiae); whole growing cells
As to the kind of experiment: HPLC of supernatant of E. coli expressing the enzyme; product zosteric acid matched synthetic standard. The note with it: intracellular PAPS as donor; 100 µM substrate in screen; M9, 37 °C, 24 h.

T4 sequence (P17988 whole entry): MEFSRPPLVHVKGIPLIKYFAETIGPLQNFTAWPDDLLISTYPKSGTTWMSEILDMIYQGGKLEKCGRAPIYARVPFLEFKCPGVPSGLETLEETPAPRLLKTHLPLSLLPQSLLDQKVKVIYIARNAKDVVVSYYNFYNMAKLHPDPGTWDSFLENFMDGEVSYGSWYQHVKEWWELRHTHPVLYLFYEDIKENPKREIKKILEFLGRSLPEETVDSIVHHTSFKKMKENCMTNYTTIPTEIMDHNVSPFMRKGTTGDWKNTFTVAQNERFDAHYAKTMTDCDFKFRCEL

`N[C@@H](Cc1ccc(O)cc1)C(=O)O` [tyrosine]: the “HPLC of p-coumaric and zosteric acid in culture of E. coli co-expressing TAL and” value on TALRsp, on TALFjo and at TALRca was “expression of a TAL-encoding gene was required for the production of pHCA” each time.

On to `O=C(O)/C=C/c1ccc(O)cc1` [p-coumaric acid], for which the “HPLC of supernatant of E. coli expressing the enzyme; product zosteric acid matc” value on SULT1A1Rno is recorded as “SULT1A1Rno showed the greatest production of zosteric acid from p-coumaric acid”.
